Laboratory results as given in US20120207753A1, “METHODS OF USING CD44 FUSION PROTEINS TO TREAT CANCER” (CENTRE HOSPITALIER UNIVERSITAIRE VAUDOIS, priority 2009, published 2012).

Key:
[1] = test system: U87MG cells; assay: Intracranial tumor growth and survival, transduced U87MG cells in Rag-1 mice; format: in vivo, human; details: single dose BCNU 10 mg/kg iv or TMZ 5 mg/kg ip
Experimental: (§1) FIG. 12. Antagonists of CD44 are effective therapeutic agents against human GBM in mouse models. A, U87MG and U251 cells were transduced with the retroviruses carrying empty vector and the expression constructs of hsCD44s-Fc, hsCD44v8-v10-Fc, and hsCD44v3-v10 and their serum free cell culture supernatants were collected and analyzed on Western blots using anti-CD44 antibody (Santa Cruz) or anti-human IgG antibody. The molecular weight bars correspond to 199 kDa and 116 kDa. B, 2×10^6 of the transduced U87MG and U251 cells were injected subcutaneously per mouse. Growth rates of the subcutaneous tumors were determined and expressed as the mean of tumor volume (mm^3)+/−SD. Six mice were used for each construct. C, Survival rates of mice following the intracranial injections of transduced U87MG (C-a) and U251 (C-b-c) cells infected with the retroviruses carrying the empty expression vectors, hsCD44s-Fc, hsCD44v8-v10-Fc, hsCD44v3-v10, hsCD44sR41A-Fc, or hsCD44v3-v10R41A-Fc constructs as indicated in the panels. […]
(§2) Mice were used in accordance with the approved IACUC Protocol. […] Following injection, mice were closely monitored and the duration of their survival was recorded. […] Number of surviving mice was recorded. The survival rates were calculated as follows: survival rate (%)=(number of mice still alive/total number of experimental mice)×100%. […]

[2] = test system: U251 cells; assay: Intracranial tumor growth and survival, transduced U251 cells in Rag-1 mice; format: in vivo, human; details: single dose BCNU 10 mg/kg iv or TMZ 5 mg/kg ip
Experimental: as §1, §2

## O=NN(CCCl)C(=O)NCCCl [BCNU, carmustine]
[1]; intracranial U87MG-Luc depleted of CD44
  inhibition of intracranial glioma formation (median survival), drug combined with CD44 knockdown: synergistic inhibition of intracranial glioma formation
[1]; intracranial U87MG-Luc
  inhibitory effect on glioma growth as single agent: weak
[2]; intracranial U251-Luc depleted of CD44
  inhibition of intracranial glioma formation (median survival), drug combined with CD44 knockdown: synergistic inhibition of intracranial glioma formation
[2]; intracranial U251-Luc
  inhibitory effect on glioma growth as single agent: weak
